26 molecules from patent publication US20080287430A1, “Furan Compounds Useful As Ep1 Receptor Antagonists” (priority 2005, published 2008) can be followed below.

Molecules are shown by their SMILES. Where a name gives a salt, the structure may show the parent alone.

The target of the test is T1, human EP1 receptor (Homo sapiens, UniProt P34995).
T1 construct: expressed in transfected cells; host or cells: CHO-K1
T1 sequence (P34995 1-402): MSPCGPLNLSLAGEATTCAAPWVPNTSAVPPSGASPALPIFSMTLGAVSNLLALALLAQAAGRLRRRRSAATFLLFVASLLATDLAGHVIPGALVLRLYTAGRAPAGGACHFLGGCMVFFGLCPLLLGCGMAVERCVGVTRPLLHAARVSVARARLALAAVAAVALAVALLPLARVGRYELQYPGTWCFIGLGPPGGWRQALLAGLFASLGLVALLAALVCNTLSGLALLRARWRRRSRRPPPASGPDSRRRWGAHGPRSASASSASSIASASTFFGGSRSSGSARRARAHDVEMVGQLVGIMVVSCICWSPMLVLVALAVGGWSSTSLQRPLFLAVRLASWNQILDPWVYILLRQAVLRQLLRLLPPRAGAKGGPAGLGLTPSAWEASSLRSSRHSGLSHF
The test can be described thus: human EP1 calcium mobilisation assay. As to conditions: human EP1, PGE2-induced calcium mobilisation in CHO-K1 cells; free bases or sodium salts; averages of a number of experiments; read-out: functional pKi value (converted). The test is classed as cell-based. As for the experimental part:
Briefly, the antagonist properties of compounds are assessed by their ability to inhibit the mobilisation of intracellular calcium ([Ca^2+]i) in response to activation of EP1 or EP3 receptors by the natural agonist hormone prostaglandin E2 (PGE2). Increasing concentrations of antagonist reduce the amount of calcium that a given concentration of PGE2 can mobilise. The net effect is to displace the PGE2 concentration-effect curve to higher concentrations of PGE2. The amount of calcium produced is assessed using a calcium-sensitive fluorescent dye such as Fluo-4, AM and a suitable instrument such as a Fluorimetric Imaging Plate Reader (FLIPR). Increasing amounts of [Ca^2+]i produced by receptor activation increase the amount of fluorescence produced by the dye and give rise to an increasing signal. The signal may be detected using the FLIPR instrument and the data generated may be analysed with suitable curve-fitting software.
The human EP1 or EP3 calcium mobilisation assay (hereafter referred to as ‘the calcium assay’) utilises Chinese hamster ovary-K1(CHO-K1) cells into which a stable (pCIN; BioTechniques 20 (1996): 102-110) vector containing either EP1 or EP3 cDNA has previously been transfected. Cells are cultured in suitable flasks containing culture medium such as DMEM:F-12 supplemented with 10% v/v foetal calf serum, 2 mM L-glutamine, 0.25 mg/ml geneticin, 100 μM flurbiprofen and 10 μg/ml puromycin.
For assay, cells are harvested using a proprietary reagent that dislodges cells such as Versene. Cells are re-suspended in a suitable quantity of fresh culture media for introduction into a 384-well plate. Following incubation for 24 hours at 37° C. the culture media is replaced with a medium containing Fluo-4 and the detergent pluronic acid, and a further incubation takes place. Concentrations of compounds are then added to the plate in order to construct concentration-effect curves. This may be performed on the FLIPR in order to assess the agonist properties of the compounds. Concentrations of PGE2 are then added to the plate in order to assess the antagonist properties of the compounds.
The data so generated may be analysed by means of a computerised curve-fitting routine. The concentration of compound that elicits a half-maximal inhibition of the calcium mobilisation induced by PGE2 (pIC50) may then be estimated.
On the technique in general: A change in cytosolic calcium serves as a functional read-out for many receptors and channels.
On to `O=C(Nc1c(F)cccc1F)c1ccc(Cc2cc(Cl)ccc2OCc2ccc(Cl)cc2Cl)o1` [Example 89, 5-[(5-Chloro-2-{[(2,4-dichlorophenyl)methyl]-oxy}phenyl)methyl]-N-(2,6-difluorophenyl)-2-furancarboxamide], for which the Ki was below 1000 nM.
For `O=C(Nc1c(F)cccc1F)c1ccc(Cc2cc(Cl)ccc2OCc2ccc(Cl)cc2)o1` [Example 90, 5-[(5-Chloro-2-{[(4-chlorophenyl)methyl]oxy}-phenyl)methyl]-N-(2,6-difluorophenyl)-2-furancarboxamide], the Ki was below 1000 nM.
In the case of `O=C(Nc1c(F)cccc1F)c1ccc(Cc2cc(Cl)ccc2OCc2ccccn2)o1` [Example 91, 5-({5-Chloro-2-[(2-pyridinylmethyl)oxy]phenyl}methyl)-N-(2,6-difluorophenyl)-2-furancarboxamide] it was below 1000 nM.
Take `O=C(Nc1c(F)cccc1F)c1ccc(Cc2cc(Cl)ccc2OCc2cccnc2)o1` [Example 92, 5-({5-Chloro-2-[(3-pyridinylmethyl)oxy]phenyl}methyl)-N-(2,6-difluorophenyl)-2-furancarboxamide]: the Ki was below 1000 nM.
With `CCCOc1ccc(Cl)cc1Cc1ccc(C(=O)Nc2c(F)cccc2F)o1` [Example 93, 5-{[5-Chloro-2-(propyloxy)phenyl]methyl}-N-(2,6-difluorophenyl)-2-furancarboxamide], the Ki was below 1000 nM.
For `O=C(Nc1c(F)cccc1F)c1ccc(Cc2cc(Cl)ccc2OCC2CC2)o1` [Example 94, 5-({5-Chloro-2-[(cyclopropylmethyl)oxy]-phenyl}methyl)-N-(2,6-difluorophenyl)-2-furancarboxamide], the Ki was below 1000 nM.
Regarding `O=C(Nc1c(F)cccc1F)c1ccc(Cc2cc(Cl)ccc2OC2CCCC2)o1` [Example 95, 5-{[5-Chloro-2-(cyclopentyloxy)phenyl]-methyl}-N-(2,6-difluorophenyl)-2-furancarboxamide], the Ki is below 1000 nM.
Take `O=C(Nc1c(F)cccc1F)c1ccc(Cc2cc(Cl)ccc2OCC2CCCCC2)o1` [Example 96, 5-({5-Chloro-2-[(cyclohexylmethyl)oxy]-phenyl}methyl)-N-(2,6-difluorophenyl)-2-furancarboxamide]: the Ki is below 1000 nM.
Take `CCC(CC)COc1ccc(Cl)cc1Cc1ccc(C(=O)Nc2c(F)cccc2F)o1` [Example 97, 5-({5-Chloro-2-[(2-ethylbutyl)oxy]phenyl}meth-yl)-N-(2,6-difluorophenyl)-2-furancarboxamide]: the Ki was below 1000 nM.
Regarding `COc1ccc2[nH]c(-c3ccc(Cc4cc(Cl)ccc4OCc4ccccc4)o3)nc2c1` [Example 100, 2-[5-({5-Chloro-2-[(phenylmethyl)oxy]phenyl}methyl)-2-furanyl]-5-(methyloxy)-1H-benzimidazole], the Ki was below 1000 nM.
As for `Clc1ccc(OCc2ccccc2)c(Cc2ccc(-c3nc4cscc4[nH]3)o2)c1` [Example 101, 2-[5-({5-Chloro-2-[(phenylmethyl)oxy]phenyl}methyl)-2-furanyl]-1H-thieno[3,4-d]imidazole], the Ki was below 1000 nM.
Take `Clc1ccc(OCc2ccccc2)c(Cc2ccc(-c3nc4nccnc4[nH]3)o2)c1` [Example 102, 2-[5-({5-Chloro-2-[(phenylmethyl)oxy]phenyl}methyl)-2-furanyl]-1H-imidazo[4,5-b]pyrazine]: the Ki was below 1000 nM.
Then `CN1CCN(c2ccc3[nH]c(-c4ccc(Cc5cc(Cl)ccc5OCc5ccccc5)o4)nc3c2)CC1` [Example 103, 2-[5-({5-Chloro-2-[(phenylmethyl)oxy]phenyl}methyl)-2-furanyl]-5-(4-methyl-1-piperazinyl)-1H-benzimidazolehydrochloride], with below 1000 nM.
In the case of `CC(C)COc1ccc(Cl)cc1Cc1ccc(-c2nc3cscc3[nH]2)o1` [Example 109, 2-[5-({5-Chloro-2-[(2-methylpropyl)oxy]-phenyl}methyl)-2-furanyl]-1H-thieno[3,4-d]imidazole] it was below 1000 nM; in that of `CC(C)COc1ccc(Cl)cc1Cc1ccc(-c2nc3ccc(Br)cc3[nH]2)o1` [Example 110, 5-Bromo-2-[5-({5-chloro-2-[(2-methylpropyl)oxy]-phenyl}methyl)-2-furanyl]-1H-benzimidazolehydrochloride], above 1000 nM.
`CCN1CCN(c2ccc3nc(-c4ccc(Cc5cc(Cl)ccc5OCC(C)C)o4)[nH]c3c2)CC1` [Example 114, 2-[5-({5-Chloro-2-[(2-methylpropyl)oxy]-phenyl}methyl)-2-furanyl]-5-(4-ethyl-1-piperazinyl)-1H-benzimidazoletrihydrochloride]: the Ki was below 1000 nM.
Turning to `CC(C)COc1ccc(Cl)cc1Cc1ccc(-c2nc3ncccc3[nH]2)o1` [Example 116, 2-[5-({5-Chloro-2-[(2-methylpropyl)oxy]phenyl}-methyl)-2-furanyl]-1H-imidazo[4,5-b]pyridine], the Ki was below 1000 nM.
On to `CC(C)COc1ccc(Cl)cc1Cc1ccc(-c2nc3cnc4ccccc4c3[nH]2)o1` [Example 118, 2-[5-({5-Chloro-2-[(2-methylpropyl)oxy]phenyl}-methyl)-2-furanyl]-1H-imidazo[4,5-c]quinoline], for which the Ki is below 1000 nM.
As to `CC(C)COc1ccc(Cl)cc1Cc1ccc(-c2nc3cc4cn[nH]c4cc3[nH]2)o1` [Example 119, 6-[5-({5-Chloro-2-[(2-methylpropyl)oxy]phenyl}-methyl)-2-furanyl]-1,5-dihydroimidazo[4,5-f]indazole], the Ki was below 1000 nM.
`Clc1ccc(OCc2ccccc2)c(Cc2ccc(-c3nc4cnccc4[nH]3)o2)c1` [Example 120, 2-[5-({5-Chloro-2-[(phenylmethyl)oxy]-phenyl}methyl)-2-furanyl]-1H-imidazo[4,5-c]pyridine hydrochloride]: the Ki was below 1000 nM.
With `Clc1ccc(OCc2ccccc2)c(Cc2ccc(-c3nc4ncccc4[nH]3)o2)c1` [Example 121, 2-[5-({5-Chloro-2-[(phenylmethyl)oxy]-phenyl}methyl)-2-furanyl]-1H-imidazo[4,5-b]pyridine], the Ki is below 1000 nM.
With `CC(C)COc1ccc(Cl)cc1Cc1ccc(-c2nc3cc(F)ccc3[nH]2)o1` [Example 122, 2-[5-({5-Chloro-2-[(2-methyipropyl)oxy]phenyl}methyl)-2-furanyl]-5-fluoro-1H-benzimidazole], the Ki is below 1000 nM.
Then `CC(C)COc1ccc(Cl)cc1Cc1ccc(-c2nc3cc(Cl)ccc3[nH]2)o1` [Example 123, 5-Chloro-2-[5-({5-chloro-2-[(2-methylpropyl)oxy]phenyl}-methyl)-2-furanyl]-1H-benzimidazole], with below 1000 nM; and `CC(C)COc1ccc(Cl)cc1Cc1ccc(-c2nc3cc(F)c(F)cc3[nH]2)o1` [Example 124, 2-[5-({5-Chloro-2-[(2-methylpropyl)oxy]phenyl}-methyl)-2-furanyl]-5,6-difluoro-1H-benzimidazole], with below 1000 nM; and `Cc1ccc2[nH]c(-c3ccc(Cc4cc(Cl)ccc4OCC(C)C)o3)nc2c1` [Example 125, 2-[5-({5-Chloro-2-[(2-methylpropyl)oxy]phenyl}-methyl)-2-furanyl]-5-methyl-1H-benzimidazole], with below 1000 nM.
Turning to `CC(C)COc1ccc(Cl)cc1Cc1ccc(-c2nc3cc(C(F)(F)F)ccc3[nH]2)o1` [Example 126, 2-[5-({5-Chloro-2-[(2-methylpropyl)oxy]phenyl}-methyl)-2-furanyl]-5-(trifluoromethyl)-1H-benzimidazole], the Ki is below 1000 nM.
